Measurements as given in patent EP4151646A1, “5-FLUOROURACIL DERIVATIVES AS PRODRUGS FOR CANCER TREATMENT” (Universität Hamburg, priority 2021, dated 2023).

What was measured:
Assay type in all cases: cell-based
HT29 = assay: XTT cell viability test on colon cancer cell line HT29; settings: 72 hours incubation
Text: Three further JW-substances (JW-7, JW-8, JW-9) having the general structure according to formula 1b above with acyloxybenzyl-groups of different lengths (from 4 to 17 carbon atoms), but being asymmetrically substituted (i.e. having different groups R^A1 and R^B1), in four different concentrations (1.11, 3.33, 10 and 30 µmol/l) were investigated. As a comparison, 5-FU was used in the same concentrations. The investigated cell lines were the colon cancer cell lines CaCo2 and HT29.
(§1) The experiments consisted of three steps. On the first day, the cells were planted on 96-well-plates and left for growing and adhering for 24 hours. On the second day, the substances were applied in the known concentrations, diluted in the cell-line specific medium. After an incubation period of 72 hours, XTT-colouring (see, e.g., Roehm NW, Rodgers GH, Hatfield SM, Glasebrook AL, 1991, An improved colorimetric assay for cell proliferation and viability utilizing the tetrazolium salt XTT, J Immunol Methods, 142(2):257-65. doi: 10.1016/0022-1759(91)90114-u) was applied and the absorbance was measured after 6 hours. Table 2. Residues RA1 and RB1 of three further 5-Fluorouracil nucleoside triphosphate prodrugs according to the invention, being asymmetrically substituted with residues RA1 and RB1.

SW620 = assay: XTT cytotoxicity test on colon carcinoma cell line, wider concentration range; settings: 30 µmol in triple dilution up to 0.014 µmol
Procedure: Further investigations were performed in relation these two substances (JW-1 and JW-4). The same procedure as in the first experiments was used, but with a wider concentration range in order to examine the onset of cytotoxicity and the therapeutic range more closely. Thus, JW-1, JW-4 and 5-FU were applied to the cells (colon carcinoma cell line SW620) in the concentrations of 30 µmol in triple dilution up to 0.014 µmol and then examined according to the same scheme. […] A major advantage is, however, their increased therapeutic range. The cytotoxicity threshold is much lower than that of 5-FU. In the case of 5-FU, first cytotoxic effects can be detected between 1 and 3 µmol. In comparison, the threshold for JW-1 and JW-4 is below 1 µmol.
as §1

MDA-MB231 = assay: XTT cytotoxicity test on triple-negative breast carcinoma cell line; settings: 25, 12.5 and 6.25 µmol/l, compared with 5-FU, 72 hours incubation
Text: In a first approach, six different JW-substances (JW-1, JW-2, JW-3, JW-4, JW-5, JW-6) having the general structure according to formula 1b above with acyloxybenzyl-groups of different lengths (from 8 to 13 carbon atoms) in three different concentrations (25, 12.5 and 6.25 µmol/l) were investigated. As a comparison, 5-FU was used in the same concentrations. The investigated cell line was a triple-negative breast carcinoma (MDA-MB231), see Fig. 2. The treatment of Triple Negative Breast Cancer is not well standardised, however, one of the treatment options includes 5-FU (Yin L, Duan JJ, Bian XW, Yu SC. Triple-negative breast cancer molecular subtyping and treatment progress. Breast Cancer Res. 2020 Jun 9;22(1):61. doi: 10.1186/s13058-020-01296-5. PMID: 32517735; PMCID: PMC7285581). […] Table 1. Residues RA1 and RB1 of six different symmetrically masked 5-Fluorouracil nucleoside triphosphate prodrugs according to the invention.
The experiments consisted of three steps. […] After an incubation period of 72 hours, XTT-colouring (see, e.g., Roehm NW, Rodgers GH, Hatfield SM, Glasebrook AL, 1991, An improved colorimetric assay for cell proliferation and viability utilizing the tetrazolium salt XTT, J Immunol Methods, 142(2):257-65. doi: 10.1016/0022-1759(91)90114-u) was applied and the absorbance was measured after 6 hours. […]

| Molecule | IC50 (HT29; 1.11, 3.33, 10 and 30 µmol/l) [µM] | IC-50 values compared with 5-FU (SW620) | cytotoxicity threshold (first cytotoxic effects) (SW620) | cytotoxic effects (MDA-MB231) | further results |
| --- | --- | --- | --- | --- | --- |
| C7/C9-TriPPPro [JW-08] | 2 | – | – | – | – |
| C10/C12-TriPPPro [JW-09] | 1 to 2 | – | – | – | – |
| C4/C17-TriPPPro [JW-07] | 4 to 5 | – | – | – | – |
| O=c1[nH]cc(F)c(=O)[nH]1 [Compound 5-FU, 5-fluorouracil] | – | – | – | – | IC50 (HT29; Homo sapiens, HT-29, 1.11, 3.33, 10 and 30 µmol/l): ~15 µM |
| C11-TriPPPro [JW-4] | – | at least as low as 5-FU | below 1 µmol | significantly stronger cytotoxicity | – |
| C8-TriPPPro [JW-1] | – | at least as low as 5-FU | below 1 µmol | significantly stronger cytotoxicity | – |
